Literature values as cited in patent publication US9974743B2, “Device and method for delivery of a medicament” (Philip Morris Products S.A., priority 2009, dated 2018).

Details: 25° C.

In the case of `CN1CCCC1c1cccnc1` (stereo not shown) [Nicotine Control, Nicotine], the vapor pressure is listed as 0.04 mm Hg.
